In patent US11786839B2, “Eutectic extract formation and purification” (Givaudan France Naturals SAS, priority 2018, dated 2023):

Experiments:
[1] = Conjugated autoxidizable triene (CAT) assay; format: biochemical
Description: Antioxidant solutions were prepared as follows: a methanol solution of eutectic extract or Trolox (reference) was prepared at the desired concentration. […] Various volumes of this solution (25, 50, 75, and 100 μL) were then added to 24.9 mL of phosphate buffer solution (PBS), pH 7.2, and then filled to 25.0 mL with pure methanol (75, 50, 25, and 0 μL, respectively). In this way, all buffered solutions of eutectic extract contained the same methanol volume (100 μL), which minimizes any possible bias among samples. Samples of these solutions (50 μL/well) were transferred using a multichannel micropipet into UV-Star 96-well microplate (Greiner, Frickenhausen, Germany) (absorbance at 273 nm=0.03). The microplate was then prewarmed and stirred in a thermostated shaker (PHMT Grant Instruments, […], England) at 37° C. for 5 min at 1,200 rpm. […] Each well was then filled with 100 μL of this tung oil-in-PBS emulsion. To improve repeatability, the microplate was then immediately pre-warmed and shaken, sheltered from light, in a thermostated shaker (PHMT Grant Instruments) at 37° C. for 1 min at 1,200 rpm. Fifty microliters of a freshly prepared AAPH solution in PBS (4 mM) was added with a multi-channel micropipet. […] The progress of reactions was immediately monitored by recording the decrease in absorbance at 273 nm. […] Each experiment was performed in triplicate (three wells), and results were expressed as the mean of CAT value (see below) ±SD. Similarly, to the ORAC assay, the antioxidant value of a sample was calculated through the difference between the area under the curve of this sample and that of the blank (without eutectic extract). The result of this operation gave the net area under the curve (AUC) which was then plotted on a graph as a function of the concentration. Only the linear part of the curve was taken into account to calculate the slope which was then divided by the slope of the Trolox (standard) calculated in the same conditions and analyzed on the same microplate. As such, CAT values were expressed as μmol Trolox equivalent/g eutectic extract.

[2] = Oxygen radical absorbance capacity (ORAC) method
Description: Test of Physico-Chemical Efficacy as Antioxidant—Oxygen Radical Absorbance Capacity (ORAC) Method
Phosphate buffer solutions (pH 7.2) containing the desired concentrations of eutectic extracts were prepared. Fifty millilitres of each solution were transferred by multi-channel pipette into a Fluotrac 96-well microplate (Greiner).
To improve the repeatability, the microplate was pre-heated at 37° C. under orbital stirring at 1,200 rpm in a temperature-controlled thermoshaker (PHMT series, Grant Instruments Ltd, Shepreth, England) for 20 minutes.
50 μL of AAPH solution in freshly prepared phosphate buffer solution was then added using a multi-channel pipette.
A drop in fluorescence to 515 nm (λex: 490 nm) was immediately recorded. Measurements were then taken every minute for 2 hours at 37±0.1° C. with 5 seconds of stirring before each measurement using a microplate reader.

[3] = Table 1, fresh rosemary eutectic extracts
[4] = Table 2, dried rosemary powder eutectic extracts

Structure (SMILES)	CAT value [1, 3]	CAT value [1, 4]	ORAC value [2, 3]	ORAC value [2, 4]	ORAC method result in words ([2]; pure substance)
C[N+](C)(C)CCO.[Cl-] [ChCl alone, choline chloride]	0 μmol TE/g	0 μmol TE/g	0.3 μmol TE/g	0.3 μmol TE/g	
CCCCn1cc[n+](C)c1.[Cl-] [BmimCl alone, 1-butyl-3-methylimidazolium chloride]		0.24 μmol TE/g		1.1 μmol TE/g	
CC[N+](CC)(CC)Cc1ccccc1.[Cl-] [BTEAC alone, benzyltriethyl ammonium chloride]	0.7 μmol TE/g	0.7 μmol TE/g	2.8 μmol TE/g	2.8 μmol TE/g	
CCCCCCCC/C=C\CCCCCCCC(=O)O [oleic acid]					positive value, although a modest one
